Measurements reported in ChEMBL document CHEMBL1201862, “PubChem BioAssay data set” (2004).
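1) Cells in 96-well plates. 2) Compound, 48 h, 5 concentrations. 3) Linear interpolation between surrounding doses. 4) Unreached endpoint = highest concentration. Here, GI50 denotes the concentration required for 50% inhibition of growth.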 Calls of active or inactive are those of the source. Cut-off read from the data, not from the text of the source: active = GI50 up to about 1.1 µM and inactive = higher.

How the values were obtained:
Assay in all cases: NCI anticancer screen, dose series, 48 h
[1] = system: Hs-578T
[2] = system: MCF7
[3] = system: HL-60
[4] = system: HCT-15
[5] = system: NCI-H226
[6] = system: DU-145
[7] = system: MDA-MB-231
[8] = system: SK-MEL-28
[9] = system: HOP-92
[10] = system: SF-268
[11] = system: SF-295
[12] = system: NCI-H460
[13] = system: 786-0
[14] = system: EKVX
[15] = system: Malme-3M
[16] = system: LOX IMVI
[17] = system: SK-MEL-5
[18] = system: NCI-H23
[19] = system: CCRF-CEM
[20] = system: SF-539
[21] = system: OVCAR-8
[22] = system: OVCAR-3
[23] = system: UO-31
[24] = system: PC-3
[25] = system: MDA-MB-435
[26] = system: KM12
[27] = system: UACC-62
[28] = system: SW-620
[29] = system: U-251
[30] = system: MDA-N
[31] = system: UACC-257
[32] = system: HCT-116
[33] = system: A549
[34] = system: M14
[35] = system: HOP-62
[36] = system: K562
[37] = system: OVCAR-4
[38] = system: SNB-19
[39] = system: IGROV-1
[40] = system: COLO 205
[41] = system: MOLT-4
[42] = system: RXF 393
[43] = system: HT-29
[44] = system: SK-OV-3
[45] = system: T47D
[46] = system: ACHN
[47] = system: NCI/ADR-RES
[48] = system: SNB-75
[49] = system: TK-10
[50] = system: SR
[51] = system: SN12C
[52] = system: OVCAR-5
[53] = system: A498
[54] = system: NCI-H522
[55] = system: HCC 2998
[56] = system: SK-MEL-2
[57] = system: CAKI-1
[58] = system: RPMI-8226

O[C@H]1[C@H](O)[C@@H](O)[C@@]2(O)C[C@@H](O)[C@@H]1N2
GI50 [1]: > 100 µM (inactive)
GI50 [2]: > 100 µM (inactive)
GI50 [3]: > 100 µM (inactive)
GI50 [4]: > 100 µM
GI50 [5]: > 100 µM (inactive)
GI50 [6]: > 100 µM (inactive)
GI50 [7]: > 100 µM (inactive)
GI50 [8]: > 100 µM (inactive)
GI50 [9]: > 100 µM (inactive)
GI50 [10]: > 100 µM (inactive)
GI50 [11]: > 100 µM (inactive)
GI50 [12]: > 100 µM (inactive)
GI50 [13]: > 100 µM (inactive)
GI50 [14]: > 100 µM (inactive)
GI50 [15]: > 100 µM (inactive)
GI50 [16]: > 100 µM (inactive)
GI50 [17]: > 100 µM (inactive)
GI50 [18]: > 100 µM (inactive)
GI50 [19]: > 100 µM (inactive)
GI50 [20]: > 100 µM (inactive)
GI50 [21]: > 100 µM (inactive)
GI50 [22]: > 100 µM (inactive)
GI50 [23]: 85.7 µM (inactive)
GI50 [24]: > 100 µM (inactive)
GI50 [25]: > 100 µM (inactive)
GI50 [26]: > 100 µM (inactive)
GI50 [27]: > 100 µM (inactive)
GI50 [28]: > 100 µM (inactive)
GI50 [29]: > 100 µM (inactive)
GI50 [30]: > 100 µM (inactive)
GI50 [31]: > 100 µM (inactive)
GI50 [32]: > 100 µM (inactive)
GI50 [33]: > 100 µM (inactive)
GI50 [34]: > 100 µM (inactive)
GI50 [35]: > 100 µM (inactive)
GI50 [36]: > 100 µM (inactive)
GI50 [37]: > 100 µM (inactive)
GI50 [38]: > 100 µM (inactive)
GI50 [39]: > 100 µM (inactive)
GI50 [40]: > 100 µM (inactive)
GI50 [41]: > 100 µM (inactive)
GI50 [42]: > 100 µM (inactive)
GI50 [43]: > 100 µM (inactive)
GI50 [44]: > 100 µM (inactive)
GI50 [45]: > 100 µM (inactive)
GI50 [46]: > 100 µM (inactive)
GI50 [47]: > 100 µM (inactive)
GI50 [48]: > 100 µM (inactive)
GI50 [49]: > 100 µM (inactive)
GI50 [50]: > 100 µM (inactive)
GI50 [51]: > 100 µM (inactive)
GI50 [52]: > 10 µM (inactive)
GI50 [53]: > 100 µM (inactive)
GI50 [54]: > 100 µM (inactive)
GI50 [55]: > 100 µM (inactive)

CC1(C)CC2C(C1=O)C1(C)CCCC2(C)C1=O (stereo not given)
GI50 [56]: > 100 µM (inactive)
GI50 [1]: > 100 µM (inactive)
GI50 [57]: > 100 µM (inactive)
GI50 [2]: > 100 µM (inactive)
GI50 [3]: > 100 µM (inactive)
GI50 [4]: > 100 µM
GI50 [5]: > 100 µM (inactive)
GI50 [6]: > 100 µM (inactive)
GI50 [7]: > 100 µM (inactive)
GI50 [8]: > 100 µM (inactive)
GI50 [9]: > 100 µM (inactive)
GI50 [10]: > 100 µM (inactive)
GI50 [11]: > 100 µM (inactive)
GI50 [12]: > 100 µM (inactive)
GI50 [13]: > 100 µM (inactive)
GI50 [14]: > 100 µM (inactive)
GI50 [15]: > 100 µM (inactive)
GI50 [16]: > 100 µM (inactive)
GI50 [17]: > 100 µM (inactive)
GI50 [18]: > 100 µM (inactive)
GI50 [19]: > 100 µM (inactive)
GI50 [20]: > 100 µM (inactive)
GI50 [21]: > 100 µM (inactive)
GI50 [22]: > 100 µM (inactive)
GI50 [23]: > 100 µM (inactive)
GI50 [24]: > 100 µM (inactive)
GI50 [25]: > 100 µM (inactive)
GI50 [26]: > 100 µM (inactive)
GI50 [27]: > 100 µM (inactive)
GI50 [28]: > 100 µM (inactive)
GI50 [29]: > 100 µM (inactive)
GI50 [30]: > 100 µM (inactive)
GI50 [31]: > 100 µM (inactive)
GI50 [32]: > 100 µM (inactive)
GI50 [33]: > 100 µM (inactive)
GI50 [34]: > 100 µM (inactive)
GI50 [35]: > 100 µM (inactive)
GI50 [36]: > 100 µM (inactive)
GI50 [37]: > 100 µM (inactive)
GI50 [39]: > 100 µM (inactive)
GI50 [58]: > 100 µM (inactive)
GI50 [40]: > 100 µM (inactive)
GI50 [41]: > 100 µM (inactive)
GI50 [43]: > 100 µM (inactive)
GI50 [44]: > 100 µM (inactive)
GI50 [45]: > 100 µM (inactive)
GI50 [46]: > 100 µM (inactive)
GI50 [47]: > 100 µM (inactive)
GI50 [48]: > 100 µM (inactive)
GI50 [49]: > 100 µM (inactive)
GI50 [50]: > 100 µM (inactive)
GI50 [51]: > 100 µM (inactive)
GI50 [52]: > 100 µM (inactive)
GI50 [55]: > 100 µM (inactive)

Cn1c(=O)oc2cc(Br)ccc21
GI50 [56]: > 100 µM (inactive)
GI50 [1]: > 100 µM (inactive)
GI50 [57]: > 100 µM (inactive)
GI50 [2]: > 100 µM (inactive)
GI50 [3]: > 100 µM (inactive)
GI50 [4]: > 100 µM
GI50 [5]: > 100 µM (inactive)
GI50 [6]: > 100 µM (inactive)
GI50 [7]: > 100 µM (inactive)
GI50 [8]: > 100 µM (inactive)
GI50 [10]: > 100 µM (inactive)
GI50 [11]: > 100 µM (inactive)
GI50 [12]: > 100 µM (inactive)
GI50 [13]: > 100 µM (inactive)
GI50 [14]: 91.4 µM (inactive)
GI50 [15]: > 100 µM (inactive)
GI50 [16]: > 100 µM (inactive)
GI50 [17]: > 100 µM (inactive)
GI50 [18]: > 100 µM (inactive)
GI50 [19]: > 100 µM (inactive)
GI50 [20]: > 100 µM (inactive)
GI50 [21]: > 100 µM (inactive)
GI50 [22]: > 100 µM (inactive)
GI50 [23]: > 100 µM (inactive)
GI50 [24]: > 100 µM (inactive)
GI50 [25]: > 100 µM (inactive)
GI50 [26]: > 100 µM (inactive)
GI50 [27]: > 100 µM (inactive)
GI50 [28]: > 100 µM (inactive)
GI50 [30]: > 100 µM (inactive)
GI50 [31]: > 100 µM (inactive)
GI50 [32]: > 100 µM (inactive)
GI50 [33]: > 100 µM (inactive)
GI50 [34]: > 100 µM (inactive)
GI50 [35]: > 100 µM (inactive)
GI50 [36]: > 100 µM (inactive)
GI50 [37]: > 100 µM (inactive)
GI50 [38]: > 100 µM (inactive)
GI50 [39]: > 100 µM (inactive)
GI50 [58]: > 100 µM (inactive)
GI50 [40]: > 100 µM (inactive)
GI50 [41]: > 100 µM (inactive)
GI50 [42]: > 100 µM (inactive)
GI50 [43]: > 100 µM (inactive)
GI50 [44]: > 100 µM (inactive)
GI50 [45]: > 100 µM (inactive)
GI50 [46]: > 100 µM (inactive)
GI50 [47]: > 100 µM (inactive)
GI50 [48]: > 100 µM (inactive)
GI50 [49]: > 100 µM (inactive)
GI50 [50]: > 100 µM (inactive)
GI50 [51]: > 100 µM (inactive)
GI50 [52]: > 100 µM (inactive)
GI50 [53]: > 100 µM (inactive)
GI50 [54]: > 100 µM (inactive)
GI50 [55]: > 100 µM (inactive)
